In the NIST ThermoML archive (doi:10.1021/je800395m):
Values joined by “and” are separate entries in the source; they are usually repeats but may differ in a detail not shown here. Identical values can stand only once. Numbers after ± are expanded uncertainties.

Conditions: for Normal melting temperature: DTA

c1ccc2cc3cc4ccccc4cc3cc2c1 [2,3-benzanthracene]
Crystal 2
Conditions	vapor or sublimation pressure [kPa]
399 K	1.46e-05 ± 1.5e-06
404.4 K	2.1e-05 ± 2.2e-06
405.6 K	2.55e-05 ± 2.6e-06
409.5 K	3.39e-05 ± 3.5e-06
410.6 K	4.22e-05 ± 4.3e-06
414.6 K	5.42e-05 ± 5.5e-06
415.8 K	6.67e-05 ± 6.8e-06
416.6 K	6.39e-05 ± 6.5e-06
418.6 K	7.84e-05 ± 8e-06
419.6 K	8.46e-05 ± 8.8e-06
420.8 K	0.0001032 ± 1e-05
424.7 K	0.0001278 ± 1.3e-05
430.1 K	0.0002146 ± 2.2e-05

CC(C)[C@@H](C)/C=C/[C@@H](C)[C@H]1CC[C@H]2C3=CC=C4C[C@@H](O)CC[C@]4(C)[C@H]3CC[C@]12C [(22E)-ergosta-5,7,22-trien-3β-ol]
Crystal, Calculated from knudsen effusion weight loss
Conditions	vapor or sublimation pressure [kPa]
381.3 K	3.1e-06 ± 2e-07
383.8 K	4.4e-06 ± 3e-07
386.5 K	5.6e-06 ± 4e-07
394.4 K	1.42e-05 ± 8e-07
399.6 K	2.6e-05 ± 1.4e-06
402.3 K	3.54e-05 ± 1.9e-06
404.6 K	4.47e-05 ± 2.4e-06
407.2 K	5.91e-05 ± 3.3e-06
412.3 K	0.0001027 ± 5.4e-06

Conditions	Normal melting temperature [°C]
Crystal	158 ± 1

CC[C@H](/C=C/[C@@H](C)[C@H]1CC[C@H]2[C@@H]3CC=C4C[C@@H](O)CC[C@]4(C)[C@H]3CC[C@]12C)C(C)C [(22E)-stigmasta-5,22-dien-3β-ol]
Crystal, Calculated from knudsen effusion weight loss
Conditions	vapor or sublimation pressure [kPa]
390.9 K	3.9e-06 ± 2e-07
392 K	4.6e-06 ± 3e-07
393.5 K	5.6e-06 ± 3e-07
396.1 K	8.2e-06 ± 5e-07
397.2 K	9.4e-06 ± 5e-07
398.7 K	1.15e-05 ± 7e-07
401.2 K	1.61e-05 ± 9e-07
403.9 K	2.2e-05 ± 1e-06
406.3 K	2.96e-05 ± 1.7e-06
408.9 K	4.11e-05 ± 2.3e-06
411.5 K	5.38e-05 ± 3e-06
414 K	7.23e-05 ± 4e-06
416.6 K	9.54e-05 ± 5.1e-06

Conditions	Normal melting temperature [°C]
Crystal	162 ± 1

CC(C)CCC[C@@H](C)[C@H]1CC[C@H]2[C@@H]3CC=C4C[C@@H](O)CC[C@]4(C)[C@H]3CC[C@]12C [.DELTA.5-cholesten-3β-ol]
Crystal, Calculated from knudsen effusion weight loss
Conditions	vapor or sublimation pressure [kPa]
386.6 K	1.18e-05 ± 7e-07
392 K	2.13e-05 ± 1.2e-06
397.3 K	3.95e-05 ± 2.2e-06
403.1 K	7.14e-05 ± 3.9e-06
408.2 K	0.0001251 ± 6.8e-06
413.8 K	0.0002146 ± 1.1e-05

Conditions	Normal melting temperature [°C]
Crystal	148 ± 1

c1ccc2cc3ccccc3cc2c1 [anthracene]
Crystal, Calculated from knudsen effusion weight loss
Conditions	vapor or sublimation pressure
319.6 K	1.3e-05 ± 8e-07 kPa and 1.29e-05 ± 8e-07 kPa
323.9 K	2.14e-05 ± 1.2e-06 kPa
326.8 K	3.04e-05 ± 1.7e-06 kPa
326.9 K	3e-05 ± 1.7e-06 kPa
331.7 K	5.29e-05 ± 2.7e-06 kPa
332.1 K	5.32e-05 ± 2.7e-06 kPa
332.2 K	5.41e-05 ± 2.9e-06 kPa
334 K	6.51e-05 ± 3.6e-06 kPa
334.2 K	6.59e-05 ± 3.7e-06 kPa
337 K	9.16e-05 ± 4.9e-06 kPa
339.4 K	0.0001131 ± 6.1e-06 kPa
342 K	0.0001487 ± 8.5e-06 kPa
349.7 K	0.0003165 ± 1.7e-05 kPa and 0.0003121 ± 1.7e-05 kPa
354.8 K	0.0005077 ± 2.7e-05 kPa

CC[C@H](CC[C@@H](C)[C@H]1CC[C@H]2[C@@H]3CC=C4C[C@@H](O)CC[C@]4(C)[C@H]3CC[C@]12C)C(C)C [β-sitosterol]
Crystal, Calculated from knudsen effusion weight loss
Conditions	vapor or sublimation pressure [kPa]
389.9 K	9.4e-06 ± 6e-07
392.4 K	1.27e-05 ± 7e-07
395.2 K	1.72e-05 ± 9e-07
397.7 K	2.23e-05 ± 1.2e-06
400.3 K	2.99e-05 ± 1.7e-06
405.6 K	5.2e-05 ± 3e-06
410.7 K	9.02e-05 ± 4.8e-06

Conditions	Normal melting temperature [°C]
Crystal	138 ± 1
